Experimental data as given in US10414725B2, “Pyrrolomycins and methods of using the same” (priority 2015, dated 2019).
≈ marks a conversion by molar mass, not a printed value. Where two headings read alike, the source gives them in different places.

Key:
[1] = system: Bacillus anthracis V770-NP1-R; experiment: microbe, parasite or virus in culture; assay type: cell-based; conditions: V770NP1R, read-out: MIC BA
[2] = system: Staphyloccocus aureus USA300; experiment: Minimum inhibitory concentration, broth microdilution, Staphylococcus aureus; assay type: cell-based; conditions: for MIC: Staphylococcus aureus
human Hela cells = experiment: Mammalian cytotoxicity assay (CellTiter 96 AQueous One); assay type: cell-based; conditions: 24 h, highest concentration tested 100 μM, read-out: IC50 human Hela cell proliferation
Staphylococcus aureus = experiment: Minimum bactericidal concentration / bactericidal activity against SA; assay type: cell-based; conditions: for MBC (100% killing of SA): 24 hours, n=4
S. aureus biofilms = experiment: Anti-staphylococcal biofilm activity (static biofilms, cfu); assay type: cell-based, Staphylococcus aureus
Bacillus anthracis = experiment: microbe, parasite or virus in culture; conditions: 1 h, read-out: reduction of BA culture viability
[3] = Pharmacokinetics of pyrrolomycin 4 in mice (LC-MS/MS of plasma)
[4] = Staphyloccocus aureus USA300, n ≥ 3, read-out: MIC SA

Row | Structure (SMILES) | MIC [1] [µg/mL] | MIC [2, 4] [µg/mL] | IC50 (human Hela cells) [µg/mL] | melting point [°C] | MIC ([2]; USA300, read-out: MIC SA) [µg/mL] | other results
1 | O=C(c1cc(F)cc(F)c1O)c1[nH]c(Br)c(Br)c1Br [Compound 3] | 0.031 (≈ 0.0674 µM) | 0.17 (≈ 0.37 µM) | > 46 | 151.8 to 152.7 |  | 
2 | O=C(c1cc(Br)c(F)[nH]1)c1cc(Cl)cc(Cl)c1O [Compound 4] | 0.047 (≈ 0.133 µM) |  | > 35.3 |  | 0.073 (≈ 0.207 µM) | killing of SA (Staphylococcus aureus; 4 μg/mL, no growth of colonies after incubation for 48 hours): 100%; MBC (100% killing of SA) (Staphylococcus aureus): 4 µg/mL; biofilm killing (S. aureus biofilms; 24 hours, 8.0 μg/mL, n=4): 84%; biofilm killing (S. aureus biofilms; 48 hours, 8.0 μg/mL): 97%; biofilm killing (S. aureus biofilms; 120 hours, 8.0 μg/mL): > 99.9%; inhibition at […] (Bacillus anthracis): 60%; oral bioavailability ([3]; 10 mg/kg oral vs 1.0 mg/kg IV): 35%; elimination half-life ([3]; IV): 6.04 h; time parent compound detectable in plasma ([3]; IV and oral, detection limit 0.8 ng/mL): up to 72 hours; AUC ([3]; IV dose 1 mg/kg): 3800 ng·h/mL; elimination half-life ([3]; oral): 6.75 h; AUC ([3]; oral dose 10 mg/kg): 13200 ng·h/mL
3 | COc1c(F)cc(F)cc1C(=O)c1ccc[nH]1 [Compound 8] | > 4 | > 4 |  | 85.7 to 87.1 |  | 
4 | O=C(c1ccc[nH]1)c1cc(F)cc(F)c1O [Compound 9] | > 4 | > 4 |  | 161.7 to 162.5 |  | 
5 | COc1c(F)cc(F)cc1C(=O)c1[nH]c(Br)c(Br)c1Br [Compound 10] | 1.5 (≈ 3.17 µM) | 3 (≈ 6.33 µM) |  | 178.9 to 179.7 |  | 
6 | COc1c(F)cc(F)cc1C(=O)c1c(Br)c(Br)c(Br)n1C [Compound 11] | > 4 | > 4 |  | 107.4 to 108.1 |  | 
7 | Cn1c(Br)c(Br)c(Br)c1C(=O)c1cc(F)cc(F)c1O [Compound 12] | > 4 | > 4 |  | 156.2 to 157.2 |  | 
8 | O=C(c1ccc[nH]1)c1cc(Cl)cc(Cl)c1O [Compound 15] | > 4 |  |  |  | > 4 | 
9 | O=C(c1cc(Br)c(Br)[nH]1)c1cc(Cl)cc(Cl)c1O [Compound 17] | 0.188 (≈ 0.454 µM) |  | > 41.4 |  | 0.073 (≈ 0.176 µM) | 
10 | O=C(c1cc(Cl)cc(Cl)c1O)c1[nH]c(F)c(Br)c1Br [Compound 18] | 0.125 (≈ 0.289 µM) | 0.19 (≈ 0.44 µM) | > 43.2 | 171.9 to 172.7 |  | inhibition at […] (Bacillus anthracis): 92%
11 | O=C(c1cc(Br)c[nH]1)c1cc(Cl)cc(Cl)c1O [Compound 19] |  |  |  |  | > 4 | MIC SA ([2]; Staphyloccocus aureus USA300, n ≥ 3): >4.0 µg/mL
12 | CN[C@H](CC(C)C)C(=O)N[C@H]1C(=O)N[C@@H](CC(N)=O)C(=O)N[C@H]2C(=O)N[C@H]3C(=O)N[C@H](C(=O)N[C@H](C(=O)O)c4cc(O)cc(O)c4-c4cc3ccc4O)[C@H](O)c3ccc(c(Cl)c3)Oc3cc2cc(c3O[C@@H]2O[C@H](CO)[C@@H](O)[C@H](O)[C@H]2O[C@H]2C[C@](C)(N)[C@H](O)[C@H](C)O2)Oc2ccc(cc2Cl)[C@H]1O [vancomycin, reference compound] |  | 2 (≈ 1.38 µM) |  |  |  | MBC (100% killing of SA) (Staphylococcus aureus): 8 µg/mL; biofilm killing (S. aureus biofilms; 24 hours, 32 μg/mL, n=4): 11%; biofilm killing (S. aureus biofilms; 120 hours, 32 μg/mL): 39%
